Measurements as given in ChEMBL document CHEMBL4507268 (2021).

Tests used:
Conditions in all cases: Compound concentration 1000.0 nM
[1] = target: Tyrosine-protein kinase ABL2 (Homo sapiens) (UniProt P42684)
[2] = target: T1, Discoidin domain-containing receptor 2 (Homo sapiens) (UniProt Q16832)
T1 sequence (whole entry): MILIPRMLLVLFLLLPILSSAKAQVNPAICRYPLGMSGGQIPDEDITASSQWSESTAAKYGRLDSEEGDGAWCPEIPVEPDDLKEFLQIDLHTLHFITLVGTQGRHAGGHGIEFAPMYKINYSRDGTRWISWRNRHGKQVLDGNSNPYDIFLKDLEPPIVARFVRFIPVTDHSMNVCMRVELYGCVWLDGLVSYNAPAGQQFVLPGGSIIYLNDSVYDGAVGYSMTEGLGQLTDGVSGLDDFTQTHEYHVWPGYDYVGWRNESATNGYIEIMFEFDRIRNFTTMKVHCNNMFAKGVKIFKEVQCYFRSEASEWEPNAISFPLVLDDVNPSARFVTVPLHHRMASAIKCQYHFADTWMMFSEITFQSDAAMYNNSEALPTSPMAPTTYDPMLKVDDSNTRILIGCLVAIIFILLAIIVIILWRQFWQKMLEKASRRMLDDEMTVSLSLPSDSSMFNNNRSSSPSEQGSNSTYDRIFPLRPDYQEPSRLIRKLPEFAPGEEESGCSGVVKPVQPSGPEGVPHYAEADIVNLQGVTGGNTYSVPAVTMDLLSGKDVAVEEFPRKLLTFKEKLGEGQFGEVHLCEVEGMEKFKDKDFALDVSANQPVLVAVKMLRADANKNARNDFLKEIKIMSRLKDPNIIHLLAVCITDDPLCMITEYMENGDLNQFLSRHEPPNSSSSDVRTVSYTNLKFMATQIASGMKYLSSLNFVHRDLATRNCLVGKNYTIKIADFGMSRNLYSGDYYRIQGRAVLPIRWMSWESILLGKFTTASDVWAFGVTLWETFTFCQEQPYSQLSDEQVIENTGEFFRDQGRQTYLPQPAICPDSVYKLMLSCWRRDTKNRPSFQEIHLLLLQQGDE

[3] = target: T2, Serine/threonine-protein kinase Nek3 (Homo sapiens) (UniProt P51956)
T2 sequence (whole entry): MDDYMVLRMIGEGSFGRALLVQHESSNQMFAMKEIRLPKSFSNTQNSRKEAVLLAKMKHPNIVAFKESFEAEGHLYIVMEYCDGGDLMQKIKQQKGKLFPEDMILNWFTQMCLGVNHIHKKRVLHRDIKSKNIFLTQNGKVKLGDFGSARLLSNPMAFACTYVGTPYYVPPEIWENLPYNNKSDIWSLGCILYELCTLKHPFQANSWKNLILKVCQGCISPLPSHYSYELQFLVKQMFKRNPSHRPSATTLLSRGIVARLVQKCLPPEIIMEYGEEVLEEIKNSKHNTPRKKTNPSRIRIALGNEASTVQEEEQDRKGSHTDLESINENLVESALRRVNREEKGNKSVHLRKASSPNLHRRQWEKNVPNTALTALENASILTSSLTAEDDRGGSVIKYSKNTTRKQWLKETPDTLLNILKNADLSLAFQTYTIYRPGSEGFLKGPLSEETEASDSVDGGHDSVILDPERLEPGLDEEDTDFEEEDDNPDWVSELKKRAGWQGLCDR

[4] = target: Cyclin-dependent kinase 14 (Homo sapiens) (UniProt O94921)
Cyclin-dependent kinase 14 (Homo sapiens), sequence (O94921 whole entry): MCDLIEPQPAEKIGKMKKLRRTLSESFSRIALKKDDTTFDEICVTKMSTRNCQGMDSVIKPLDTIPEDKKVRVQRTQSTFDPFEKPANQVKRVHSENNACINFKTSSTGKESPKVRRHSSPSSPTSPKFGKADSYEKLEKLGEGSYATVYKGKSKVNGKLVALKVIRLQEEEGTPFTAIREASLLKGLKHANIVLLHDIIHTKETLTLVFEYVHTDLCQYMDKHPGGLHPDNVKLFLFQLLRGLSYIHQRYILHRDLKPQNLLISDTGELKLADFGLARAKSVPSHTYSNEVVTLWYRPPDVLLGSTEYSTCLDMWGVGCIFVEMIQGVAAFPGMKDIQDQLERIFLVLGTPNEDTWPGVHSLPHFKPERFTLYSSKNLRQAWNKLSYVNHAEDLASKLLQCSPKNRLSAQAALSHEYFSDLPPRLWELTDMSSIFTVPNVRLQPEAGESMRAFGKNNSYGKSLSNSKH

[5] = target: BDNF/NT-3 growth factors receptor (Homo sapiens) (UniProt Q16620)
BDNF/NT-3 growth factors receptor (Homo sapiens), sequence (Q16620 32-822 limits assumed): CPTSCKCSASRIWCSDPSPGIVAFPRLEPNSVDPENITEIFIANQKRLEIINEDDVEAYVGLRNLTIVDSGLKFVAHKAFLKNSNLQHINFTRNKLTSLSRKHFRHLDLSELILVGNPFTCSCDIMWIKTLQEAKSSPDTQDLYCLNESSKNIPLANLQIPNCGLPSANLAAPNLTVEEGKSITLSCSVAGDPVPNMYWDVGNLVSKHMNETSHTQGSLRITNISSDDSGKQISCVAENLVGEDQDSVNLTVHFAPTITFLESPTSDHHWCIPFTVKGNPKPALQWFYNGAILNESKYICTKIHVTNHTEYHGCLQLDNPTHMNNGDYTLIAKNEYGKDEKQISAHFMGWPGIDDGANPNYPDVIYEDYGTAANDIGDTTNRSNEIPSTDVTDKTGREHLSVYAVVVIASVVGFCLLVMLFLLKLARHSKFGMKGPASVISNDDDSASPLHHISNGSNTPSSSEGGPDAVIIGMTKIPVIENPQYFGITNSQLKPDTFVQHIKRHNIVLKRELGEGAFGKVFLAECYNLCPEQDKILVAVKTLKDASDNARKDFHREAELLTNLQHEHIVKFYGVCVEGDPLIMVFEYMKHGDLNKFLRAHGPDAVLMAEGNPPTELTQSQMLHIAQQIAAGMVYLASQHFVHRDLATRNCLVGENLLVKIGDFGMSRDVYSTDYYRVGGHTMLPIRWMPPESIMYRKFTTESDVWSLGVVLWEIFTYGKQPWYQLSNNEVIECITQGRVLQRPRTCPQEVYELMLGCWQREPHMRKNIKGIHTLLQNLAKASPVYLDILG

[6] = target: T3, Serine/threonine-protein kinase ULK2 (Homo sapiens) (UniProt Q8IYT8)
T3 sequence (whole entry): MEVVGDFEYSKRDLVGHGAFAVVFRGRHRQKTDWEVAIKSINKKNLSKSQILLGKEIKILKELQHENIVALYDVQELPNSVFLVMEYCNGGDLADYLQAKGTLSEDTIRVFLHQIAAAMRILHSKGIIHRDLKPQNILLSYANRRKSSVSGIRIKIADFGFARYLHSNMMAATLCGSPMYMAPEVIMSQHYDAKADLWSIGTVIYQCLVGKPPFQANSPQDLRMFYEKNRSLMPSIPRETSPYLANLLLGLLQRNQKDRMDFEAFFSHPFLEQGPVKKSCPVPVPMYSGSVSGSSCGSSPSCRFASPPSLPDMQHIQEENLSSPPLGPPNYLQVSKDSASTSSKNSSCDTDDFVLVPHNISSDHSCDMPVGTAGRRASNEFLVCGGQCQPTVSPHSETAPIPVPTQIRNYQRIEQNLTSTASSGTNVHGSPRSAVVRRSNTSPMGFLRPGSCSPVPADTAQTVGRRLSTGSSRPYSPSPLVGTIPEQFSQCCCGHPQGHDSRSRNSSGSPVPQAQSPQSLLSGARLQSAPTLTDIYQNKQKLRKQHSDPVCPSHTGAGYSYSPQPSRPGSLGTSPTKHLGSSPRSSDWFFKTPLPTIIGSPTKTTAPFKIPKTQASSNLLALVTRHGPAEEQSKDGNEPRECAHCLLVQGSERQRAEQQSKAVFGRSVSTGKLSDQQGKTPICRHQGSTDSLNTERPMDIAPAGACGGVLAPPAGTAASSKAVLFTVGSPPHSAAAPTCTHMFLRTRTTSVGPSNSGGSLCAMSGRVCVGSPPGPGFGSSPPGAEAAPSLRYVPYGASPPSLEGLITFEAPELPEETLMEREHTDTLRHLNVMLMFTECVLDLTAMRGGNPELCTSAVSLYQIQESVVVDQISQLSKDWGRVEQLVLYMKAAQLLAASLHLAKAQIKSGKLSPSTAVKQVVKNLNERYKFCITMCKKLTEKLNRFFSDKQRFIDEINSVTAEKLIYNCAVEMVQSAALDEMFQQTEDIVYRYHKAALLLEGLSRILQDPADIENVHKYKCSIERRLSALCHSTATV

Measured: residual activity

Tyrosine-protein kinase ABL2 (Homo sapiens), sequence (P42684 whole entry, the tested form may be a part): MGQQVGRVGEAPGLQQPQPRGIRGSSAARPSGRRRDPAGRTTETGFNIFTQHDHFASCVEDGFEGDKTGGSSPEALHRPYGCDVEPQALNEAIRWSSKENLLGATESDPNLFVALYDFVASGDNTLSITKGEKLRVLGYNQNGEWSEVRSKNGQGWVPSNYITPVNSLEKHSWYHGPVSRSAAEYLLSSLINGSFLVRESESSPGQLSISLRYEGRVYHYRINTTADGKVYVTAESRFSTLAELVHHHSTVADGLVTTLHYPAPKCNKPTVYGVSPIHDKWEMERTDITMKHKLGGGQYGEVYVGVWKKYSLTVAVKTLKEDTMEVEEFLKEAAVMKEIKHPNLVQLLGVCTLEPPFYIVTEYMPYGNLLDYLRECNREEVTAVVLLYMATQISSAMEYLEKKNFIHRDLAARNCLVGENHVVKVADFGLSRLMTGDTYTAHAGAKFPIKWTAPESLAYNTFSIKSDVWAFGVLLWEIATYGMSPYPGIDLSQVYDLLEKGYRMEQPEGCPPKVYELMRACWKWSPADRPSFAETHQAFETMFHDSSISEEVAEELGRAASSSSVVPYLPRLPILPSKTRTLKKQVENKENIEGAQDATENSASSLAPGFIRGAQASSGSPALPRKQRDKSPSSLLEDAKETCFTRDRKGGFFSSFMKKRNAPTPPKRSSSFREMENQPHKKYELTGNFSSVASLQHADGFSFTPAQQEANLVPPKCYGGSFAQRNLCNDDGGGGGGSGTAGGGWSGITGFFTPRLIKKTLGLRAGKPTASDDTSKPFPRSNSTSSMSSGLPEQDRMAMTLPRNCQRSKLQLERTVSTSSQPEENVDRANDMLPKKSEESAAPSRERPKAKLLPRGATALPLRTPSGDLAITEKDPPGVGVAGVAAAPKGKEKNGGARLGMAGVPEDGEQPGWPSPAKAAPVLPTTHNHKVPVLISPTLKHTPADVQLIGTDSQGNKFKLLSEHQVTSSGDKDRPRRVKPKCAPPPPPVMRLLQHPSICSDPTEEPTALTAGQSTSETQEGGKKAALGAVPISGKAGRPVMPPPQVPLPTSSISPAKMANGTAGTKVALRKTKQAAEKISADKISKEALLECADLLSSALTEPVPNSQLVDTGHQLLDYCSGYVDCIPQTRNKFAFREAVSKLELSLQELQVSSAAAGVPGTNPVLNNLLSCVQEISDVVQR

Cc1nc(C2CCN(C(=O)c3ccc(OC(F)(F)F)cc3N)CC2)c2ncc(N3CCN(C)CC3)cc2n1 [BAY-693]
inactive: [1] 93% | [2] 92% | [3] 89% | [4] 100% | [5] 100% | [6] 100%

CN1CCN(c2cnc3c(C4CCN(C(=O)c5ccc(OC(F)(F)F)cc5N)CC4)ncnc3c2)CC1 [BAY-885]
inactive: [1] 100% | [2] 100% | [3] 97% | [4] 100% | [5] 100% | [6] 100%
